Test results reported in US5602161A, “Tetrazolylphenyl pivalate derivatives and medicinal composition containing the same as effective component” (Wakamoto Pharmaceutical Co., Ltd., priority 1994, dated 1997).
pIC50: −log10 of the molar value. Read-outs that look alike come from different tables or passages of the source.

Assays:
[1] = test system: pancreatic elastase induced acute lung injury in mice; assay: Inhibitory effect on pancreatic elastase induced acute lung injury in mice; type: in vivo, ICR mice; conditions: oral 10 mg/Kg at 3.5 hr before and 4.5~5.0 hr after P. elastase (5 μg/site); BAL fluid at 20 hrs
Protocol: ICR mice (25~30 g, .male., n=7~8) were used.
The compound to be evaluated was suspended in 0.5% sodium carboxymethylcellulose-saline.
Oral administration of the test compound was given at 10 mg/Kg at 3. 5 hr before an intratacheal instillation of P. elastase (5 μg/site). After sodium pentobarbital anesthetized, sterile saline containing P. elastase was instilled intratracheally via ventral neck in the throat incisions using a 250 μl syringe attached to a 27-gauge needle.
The throat incisions were closed with surgical suture, and test compounds were administered with the same manner as described above at 4.5~5.0hr after an intratracheal instillation of P. elastase.
At 20 hrs after an intratracheal instillation of P. elastase, animalz were euthanized by an i.p. pentobarbital overdose, each animal trachea was reexposed and the ventral nech region was small incised. A 10 cm length of small-diameter (O.D=0.5 mm) polyethylene catheter inserted and held in place using surgical suture. The lung were then lavaged with 500 μl sterile saline using a 1 ml syringe by gently expanding the lung and then withdrawing the saline.
The same operation was repeated 6 times, yielding in a final volume of 3 ml bronchoalveolar lavage (BAL) fluid from each animal.
The test compounds were evaluated as a inhabitory percent of hemorrhage and leukocyte number in the BAL fluid from each animal.
Operation for hemorrhage and leukocyte number assay;
Red blood cells were bursted with adding 50 μl KCN solution (0.33%) per 1 ml BAL fluid. The amount of blood in each BAL fluid sample was calculated from a hemoglobin standard curve.
(§1) BAL fluid was diluted to 100 fold with a balanced electrolyte solution and KCN solution (0.33%) was added to the diluted BAL fluid for lysis of contaminating red blood cells.
Leukocyte number was determined by the average of the three times count using a particle counter.
Inhibitory effects of the test compounds on hemorrhage and leukocyte infiltration were calculated from the following equation: Inhibitory percent=[1-(The average value of test compound
group)/(The average value of the control group)]×100
The control animals were dosed orally with the same amount of vehicle before and after intratracheal instillation of P. elastase, and it were treated with the same manner as the test compound group.

human sputum elastase = biological target: T1, human sputum elastase (Homo sapiens, UniProt P08246); assay: Inhibitory effect on elastase (human sputum), spectrophotometric assay with MeOSuc-Ala-Ala-Pro-Val-pNA; type: biochemical
T1 sequence (P08246 30-247 limits assumed): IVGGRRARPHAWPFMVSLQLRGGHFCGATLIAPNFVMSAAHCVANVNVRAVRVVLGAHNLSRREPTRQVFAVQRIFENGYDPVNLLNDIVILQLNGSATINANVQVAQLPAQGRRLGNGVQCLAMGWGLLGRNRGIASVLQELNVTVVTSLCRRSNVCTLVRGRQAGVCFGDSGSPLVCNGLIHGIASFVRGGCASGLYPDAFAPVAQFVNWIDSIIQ
Protocol: (§2) Namely, it is a spectrophotometric assay using the synthesized substrate, methoxysuccinyl-alanyl-alanyl- prolyl-valyl-p-nitroanilide(MeOSuc-Ala-Ala-Pro-Val-pNA, Cambridge research biochemical Co.) which has high specificity on neutrophil elastase.
(§3) 20 μl of a test compound of various concentrations and 20 μl of enzyme solution (13 unit/ml) were added to 400 μl of 0.1M sodium phosphate buffer (pH 8.0). The mixture was incubated at 37° C. for 5 min, and then 20 μl of the substrate was added to the mixture in a final volume of 460 μl. The reaction was conducted by incubating thus obtained mixture at 37° C. for 20 min. The reaction was stopped by the addition of 300 μl of 20% acetic acid into the reaction mixture, and then p-nitroanilide released was measured by the spectrophotometrically at 405 nm.
(§4) Inhibition percents of the test compounds were calculated by the following equation:
(§5) Inhibition %=[1-(OD 405 nm value of the testing sample-background)/(OD 405 nm value of the control-background)]×100

[2] = test system: endotoxin induced acute lung injury in mice; assay: Inhibitory effect on endotoxin induced acute lung injury in mice; type: in vivo, ICR mice; conditions: Mus musculus, oral 10 mg/Kg at 1.5 hr before and 4.5~5.0 hr after LPS (25 μg/site), BAL fluid at 19~20 hrs
Protocol: ICR mice (25~30 g, .male., n=7) were used.
The test compounds were suspended at 0.1% in 0.5% sodium carboxymethylcellulose-saline.
Oral administration of the test compounds were given at 10 mg/Kg at 1.5 hr before an intratracheal instillation of LPS (E.coli, 055:B5, Difico, 25 μg/site). After sodium pentobarbital anesthetized, LPS dissolved in sterile saline was instilled intratracheally via a ventral neck in the throat incisionusing with a 250 μl syringe attached to a 27-gauge needle.
The throat incisions were sutured with surgical threads, and PI-compound was administered with the same mannner as described above 4.5~5.0 hr after LPS instillation.
Up 19~20 hrs after LPS instillation, animals were euthanized by an i.p. pentobarbital overdose, each animal trachea was reexposed and the ventral neck region was small incised.
A 10 cm length of small-diameter (O.D=0.5 mm) polyethylene catheter inserted and held in place using surgical suture. The lung was then lavaged with a single 500 μl sterile saline using a 1 ml syringe by gently expanding the lung and then withdrawing the saline. The same operation was repeated 6 times, yielding a final volume of 3 ml bronchoalveolar lavage (BAL) fluid from each animal.
Evaluation of testing compounds were expressed as inhibitory percent of hemorrhage and leukocyte infiltration in the lung of each animals.
Estimation for hemorrhage:
Red blood cells were bursted with adding 50 μl KCN solution (0.33 %) per 1 ml of BAL fluid, and then the amount of blood in each BAL fluid samples were calculated from a hemoglobin standard curve.
Estimation of leukocyte infiltrations:
as §1
Leukocyte number was determined from the average of the three times count using a particle counter.
The inhibitory effect of testing compounds were calculated from thefollowing equation:
Inhibitory percent=[1-(The average value of the test compound group)/(The
average value of the control group)]×100
The control animals were dosed orally with the same amount of the vehicle before and after intratracheal instillation of LPS and were operated with the same manner as the animals tested with the test compounds.

[3] = Cytotoxicity test (MTT, three days); type: cell-based; conditions: mouse, l1210 cells, read-out: Survival rate; for viability at 72 h, 1 µM: final concentration 1 μM; for viability at 72 h, 5 µM: final concentration 5 μM; for viability at 72 h, 10 µM: final concentration 10 μM
Protocol: L1210 (lymphocytic leukemia, mouse) cells in a logarithmic growth phase were collected and washed twice with HBSS (Hanks' balanced salt solution). The L1210 cells were resuspended at 5.0×10^4 cells/ml in RPMI 1640 medium containing 10% heat-inactivated fetal bovine serum. The cell suspension was dispensed in 100 μl aliquots into 96 well multi-plate. Each of compounds to be tested was dissolved in dimethylsulfoxide at a concentration of 10 mM. The solutions were stepwise diluted with RPMI 1640 solution containing 10% heat-inactivated fetal bovine serum. Each of the diluted samples was dispensed in an amount of 10 μl well in the 96 well multi-plate containing L1210 cells and incubated for three days at 37° C. in humidified 5% CO2 -air mixture. To each of the wells, 10 μl of MTT (3-(4,5-dimethylthiazol-2-yl)-2,5-diphenyltetrazolium bromide)(5 mg/ml in phosphate buffer free of Ca^2+ and Mg^2+) was added. Cultivation was continued for additional five hours at 37° C. in humidified 5% CO2 -air mixture. To each of the wells, 100 μl of 20% SDS (sodium dodecyl sulfate) in 0.01N HCl was added to solubilize the MTT formazan.
Absorbance was measured at 630 nm as a reference wavelength and 570 nm as a measuring wavelength using Corona Electric MTP22 Microplate Photometer. The measurement was conducted three times for each of the samples to obtain an average value and a standard deviation. Survival rate was calculated by the following equation:
Survival rate (5)=[(absorbance of test sample)/(absobance of […]

[4] = biological target: T2, human neutrophil elastase (Homo sapiens, UniProt P08246); assay: Inhibitory effect on elastase (human neutrophil), spectrophotometric assay with MeOSuc-Ala-Ala-Pro-Val-pNA; type: biochemical
T2 construct: using elastase from human neutrophil or human sputum; from tissue; host or cells: human neutrophil
T2 sequence (P08246 30-247 limits assumed): T1 sequence (P08246 30-247 limits assumed)
Protocol: as §2, §3, §4, §5

[5] = test system: endotoxin-induced lung disorders; conditions: The Course of Medical Science, 1992, 160, No. 4, pp. 257-258; cited from earlier work
[6] = S: human sputum elastase, pH 8.0, 37° C., read-out: IC50
[7] = Leukocyte, read-out: Inhibitory percent of leukocyte infiltration
[8] = read-out: Inhibitory percent of hemorrhage
[9] = N: human neutrophil elastase, pH 8.0, 37° C., read-out: IC50

Compound | Inhibitory percent of hemorrhage [1] | Inhibitory percent of leukocyte infiltration [1] | pIC50 (human sputum elastase; [6]) | inhibition in vivo at 10 mg/kg [2, 7] | inhibition in vivo at 10 mg/kg [2, 8] | viability at 72 h, 1 µM [3] | viability at 72 h, 5 µM [3] | viability at 72 h, 10 µM [3] | pIC50 [4, 9] | pIC50 [4] | pIC50 (human sputum elastase) | effect of inhibiting endotoxin-induced lung disorders (in words) [5]
CN(C)c1ccc(Cn2nnc(-c3ccc(OC(=O)C(C)(C)C)c(N(C)C)c3)n2)cc1 [Example 7, 2-Dimethylamino-4-[2-[4-(dimethylamino)benzyl]tetrazol-5-yl]phenyl pivalate] | 23.6% | 26.1% | 6.27 | 82.1% | 88.5% | 97% | 96.1% | 88.3% | – | – | – | –
CN(C)c1ccc(Cn2nnc(-c3ccc(OC(=O)C(C)(C)C)cc3)n2)cc1 [Example 16, 4-[2-[4-(Dimethylamino)benzyl]tetrazol-5-yl]phenyl pivalate] | 44.0% | 49.0% | 6.82 | 88.2% | 84.9% | 94.2% | 103% | 104% | 7.52 | – | – | –
CC(C)c1ccc(Cn2nnc(-c3ccc(OC(=O)C(C)(C)C)cc3)n2)cc1 [Example 19, 4-[2-(4-Isopropylbenzyl)tetrazol-5-yl]phenyl pivalate] | 76.8% | 14.1% | 6.29 | 65.6% | 33.8% | – | – | – | 7.38 | – | – | –
CC(C)(C)C(=O)Oc1ccc(-c2nnn(Cc3ccncc3)n2)cc1 [Example 35, 4-[2-(4-Pyridylmethyl)tetrazol-5-yl]phenyl pivalate] | 71.5% | 45.1% | 7.85 | – | – | 95.2% | 110% | 99.1% | – | – | – | –
COc1ccc(COCCCCn2nnc(-c3ccc(OC(=O)C(C)(C)C)cc3)n2)cc1 [Example 42, 4-[2-[4-(4-Methoxybenzyloxy)butyl]tetrazol-5-yl]phenyl pivalate] | – | – | 7.66 | 64.1% | 39.4% | – | – | – | 7.72 | – | – | –
CC(C)(C)C(=O)Oc1ccc(-c2nnn(CCOC(=O)c3ccc(NC(=N)N)cc3)n2)cc1 [Example 94, 4-[2-[2-(4-Guanidinobenzoyloxy)ethyl]tetrazol-5-yl]phenyl pivalate Acetate] | – | – | – | 51.8% | 36.6% | – | – | – | – | 7.02 | – | –
CC(=O)O.CC(C)(C)C(=O)Oc1ccc(-c2nnn(CCNC(=O)c3ccc(NC(=N)N)cc3)n2)cc1 [Example 95, 4-[2-[2-(4-Guanidinobenzoylamino)ethyl]tetrazol-5-yl]phenyl pivalate Acetate] | 15.2% | 30.2% | – | 79.6% | 62.3% | 103% | 109% | 107% | – | – | 6.60 | –
CC(C)(C)C(=O)Oc1ccc(S(=O)(=O)Nc2ccccc2C(=O)NCC(=O)O)cc1 [ONO-5046] | – | – | – | – | – | – | – | – | – | – | – | shows an effect of inhibiting endotoxin-induced lung disorders
